| Structure (SMILES) | melting point |
| --- | --- |
| COc1cccc(CNC(=O)c2nc3c(cc(C)n3S(C)(=O)=O)c(=O)[nH]2)c1 | 211 to 213 °C |
| COc1ccc(C2CSc3ccccc3N(CC(=O)O)C2=O)cc1 (stereo not given) | 180 °C |
| O=C(O)C1C(c2ccc3c(c2)OCO3)c2ccccc2C1c1ccc2c(c1)OCO2 (racemic) | 182 to 185 °C |
| N#CC(=CNc1ccccc1)Cc1ccc2ccccc2c1 | 148 to 153 °C |
| CCCCC(NC(=O)C(CC(C)C)NC(=O)COc1ccc2ccccc2c1)C(=O)CSCc1ccco1 (stereo not given) | 87 to 89 °C |
| Cc1ccc(C2=CCN(CCCn3c(=O)[nH]c4cccc(C)c4c3=O)CC2)cc1 | 165 to 170 °C |
| CCCCNC(=O)CCC(=NNC(N)=S)c1ccccc1 | 64 to 68 °C |
| CN(C)S(=O)(=O)c1ccc(Oc2ccc(S(=O)(=O)c3ccccc3)cc2)cc1 | 99 to 100 °C |
| O=C(O)CN1C(=O)C(c2ccccc2)c2ccccc21 (stereo not given) | 180 to 181 °C |
| COc1ccc2c(c1)C(O)c1cc(CO)ccc1O2 (stereo not given) | 142 to 143 °C |
| CCC(C(O)c1ccc(Cl)cc1)n1ncn(-c2ccc(N3CCN(c4nc5ccccc5o4)CC3)cc2)c1=O (stereo not given) | 221 °C |
| CCCCCCCC[C@H](O)C(=O)O | 70 to 72 °C |
| Cc1cc(Cl)ccc1Cn1nc(C=O)c2ccccc21 | 107 to 109 °C |
| Cc1nnc2ccc(-c3ccc(F)cc3)nn12 | 227 to 229 °C |
| CC(C)NC1=NS(=O)(=O)c2cc(C(=O)O)ccc2N1 | > 310 °C |
| COC(=O)C(C)(C)Cc1ccc2oc(-c3ccc4ccc(Cl)cc4n3)cc2c1 | 137 to 138 °C |
| COC(=O)c1cc(/C=C/C(=O)O)ccc1Cl | 194 °C |
| CCO[C@@H](Cc1ccc(OCCc2nc(-c3ccc(C(F)(F)F)cc3)oc2C)c2ccccc12)C(=O)O | 153 to 155 °C |
| CC1(Cc2ccccc2)OC(=O)Nc2ccc(-c3cccc(Cl)c3)cc21 (stereo not given) | 187 to 188 °C |
| Nc1ccc2ccc(Oc3ccc(Cl)cc3)nc2n1 | 177 °C |
| C=CCONC(=O)c1nc(-c2ccc(Cl)c(OC)c2F)cc(N)c1Cl | 169 to 172 °C |
| CC(C)(C)C(O)Cn1c(=O)c(=NNc2ccccc2)c(=O)n(-c2ccccc2F)c2ccccc21 (stereo not given) | 217 to 218 °C |
| CC(C)(C)C(O)C(=CC1CCCCC1)n1cncn1 (stereo not given) | 145 to 148 °C |
| COc1ccc(C2C(=O)OC3=CC(O)(OC(C)=O)C=CC3=C2C)c(OC)c1 (stereo not given) | 146 to 148 °C |
| O=C1C2=C(CCCC2)C(SSC2C3=C(CCCC3)C(=O)N2c2ccc(Cl)cc2F)N1c1ccc(Cl)cc1F (stereo not given) | 146 to 147 °C |

| Structure (SMILES) | melting point |
| --- | --- |
| O=C(O)c1ccc(SCC(=O)C23CC4CC(CC(C4)C2)C3)nc1 | 174 to 176 °C |
| N#Cc1ccc(-c2c[nH]nc2C(F)(F)F)cc1SCC(F)(F)F | 65 to 67 °C |
| O=C1CN2Cc3cc(OCCCC(=O)N(CCCCCCOC(=O)c4ccccc4)C4CCCCC4)ccc3N=C2N1 | 94 to 95 °C |
| COc1ccc(N2CCN(c3ccc(NC(=O)Oc4ccccc4)cc3)CC2)cc1 | 204 °C |
| O=C1OC(=O)C2CC3=C(CC3)CC12 (stereo not given) | 81 to 83 °C |
| CCCCCOC(=O)c1cc(NC(=O)C2=C(C)OCCS2)ccc1Cl | 65 to 68 °C |
| COC(=O)c1ccc(C(O)(c2ccc3[nH]c(=O)cc(-c4cccc(Cl)c4)c3c2)c2cncn2C)cc1 (stereo not given) | 255 °C |
| Nc1nccc(Oc2ccc3c(c2)CCCN3)n1 | 180 to 182 °C |
| Cc1ccc(S(=O)(=O)OCCc2cc3ccccc3o2)cc1 | 195 to 197 °C |
| COc1cc(-c2ccc(Cl)cc2)nc2c(C(=O)Nc3cccc(S(C)(=O)=O)c3)cnn12 | 265 °C |
| O=C1c2ccccc2C(=O)N1CCCOc1cccc(CN2CCOCC2)c1 | 90 to 93 °C |
| COc1ccc(Nc2ccc(CO)cc2)cc1 | 110 °C |
| CCNC(=S)Nc1nc2ccc(OC(F)(F)F)cc2s1 | 199 to 200 °C |
| COC(=O)N1CC[C@H](NC(C)=O)C[C@H]1Cc1ccc(Cl)cc1 (relative stereo) | 169 to 170 °C |
| C[Si](C)(C)c1cccc(Cl)c1C(=O)NC(c1ccccc1)n1nnc2ccccc21 (stereo not given) | 184 to 186 °C |
| O=S(=O)(C(/C=C/c1ccc(Cl)cc1)c1c(F)c(F)c(F)c(F)c1F)C(/C=C/c1ccc(Cl)cc1)c1c(F)c(F)c(F)c(F)c1F (stereo not given) | 154 to 155 °C |
| COc1ccc2c(c1)CCC1CCN(C)C(=O)C(CC(C)NC(C)C)=C21 (stereo not given) | 118 to 120 °C |
| CCCCCCCCCCCCSC1C=NNC1=O (stereo not given) | 88.5 to 90 °C |
| CC(OC(=O)Nc1ccccc1)c1ccccc1[N+](=O)[O-] (stereo not given) | 74 to 75 °C |
| CCN(Cc1cc(-c2ncco2)ccc1-c1ccccc1S(=O)(=O)Nc1onc(C)c1C)CC(F)(F)F | 55 to 65 °C |
| CCSCCn1c(=N)sc2cc(C(F)(F)F)ccc21 | 50 °C |
| CCOC(=O)c1ncn(S(=O)(=O)N(C)C)n1 | 78.5 to 81.5 °C |
| CCc1nc2ccc(Br)cc2c2ccc(F)cc12 | 111 °C |
| Cc1cccc(NC(=O)NC2CN(C(=O)C(C)(C)C)c3ccccc3N(CC(=O)OCc3ccccc3)C2=O)c1 (stereo not given) | 136 to 140 °C |
| CC1CCCCN1CCCNC(=O)c1ccccc1C(c1ccc(O)cc1)c1ccc(O)cc1 (stereo not given) | 118 to 120 °C |

| Structure (SMILES) | melting point |
| --- | --- |
| CSc1nn(C(=S)Oc2ccccc2)c(=O)n1C | 242 °C |
| CCOC(=O)C(O)(CC(=O)c1ccc(-c2ccccc2)cc1)C(=O)OCC | 88 to 88.3 °C |
| Fc1ccc(SCCCN2CCN(c3ncc(F)cn3)CC2)cc1 | 68 to 70 °C |
| O=C(OCC1OC(OC(=O)c2ccccc2)C(F)C1OC(=O)c1ccccc1)c1ccccc1 (stereo not given) | 77 to 78 °C |
| COC(=O)c1cc2cc(S(N)(=O)=O)sc2s1 | 219 to 220 °C |
| C=CCN1CCc2nc(NCC)nc(-c3ccc(Cl)cc3)c2C1 | 104 to 106 °C |
| COc1cc(OC)cc(N2Cc3cnc(SC)nc3N=C2N)c1 | 198 to 204 °C |
| N#Cc1c(SSc2ccc([N+](=O)[O-])cc2C(Cl)(Cl)Cl)ccc2ccccc12 | 170 °C |
| Cc1nc(N2CCN(CC3CC3(F)F)C2=O)sc1C(=O)NCc1cccnc1 (stereo not given) | 169 to 171 °C |
| Cc1ccc(-c2cc3cc(C(=O)O)ccc3o2)cc1 | 279 to 283 °C |
| CC(C)c1nn(-c2ccc(C(F)(F)F)cn2)cc1CCCOc1cc(CCC(=O)O)n(-c2ccccc2)n1 | 139 to 140 °C |
| CNc1ccc(-c2c[nH]cn2)cc1 | 75 to 76 °C |
| COc1ccc(/C=C/C(=O)Nc2cc(OC)c(OC)cc2C(=O)O)cc1OC | 236 to 239 °C |
| CCCc1cc(C(O)=S)cc(N)c1C(=O)c1ccccc1 | 124 to 126 °C |
| CS(=O)(=O)NC1CCN(c2ccc(C#N)c3ccccc23)C1 (stereo not given) | 128 to 129 °C |
| COc1ccc2cc(C3(O)CN4CCC3CC4)ccc2c1 (racemic) | > 330 °C |
| CCOCC(=O)Nc1nc2ccccc2s1 | 113 to 114 °C |
| Cc1cccc(C(=O)C2CCCc3cccnc32)c1 (stereo not given) | 211 to 213 °C |
| CSc1nc(Cl)c(-c2c(F)cc(F)cc2F)c(N2CCCC(C)O2)n1 (stereo not given) | 110 to 111 °C |
| CCOC(=O)c1cc(-n2c(=O)c3c(n(C)c2=O)CCCC3)ccc1Cl | 108 to 112 °C |
| CC(=O)c1ccc2c(c1)CCCS2 | 49.5 to 50.5 °C |
| CC(=O)Nc1c([N+](=O)[O-])c(Br)nn1-c1c(Cl)cc(C(F)(F)F)cc1Cl | 179 to 180 °C |
| CC(=O)c1nn(-c2c(Cl)cc(C(F)(F)F)cc2Cl)c(NSC(F)(F)F)c1S(C)=O (stereo not given) | 67 to 102 °C |
| N#CCC(=O)N1CC=CCC1 | 58 to 59 °C |
| CCc1nc2cc(Cl)c(S(N)(=O)=O)cc2[nH]1 | 240 to 242 °C |

| Structure (SMILES) | melting point |
| --- | --- |
| Cc1cc(C)c(-c2nc(Cl)nc(Cl)n2)c(C)c1 | 85 to 91 °C |
| COc1ccc2c(c1)C(=O)N(c1ccc3c(ccn3C)c1)C2 | 193 to 197 °C |
| CC(C)Cc1cc(C(=O)N2CCN(CC(C)C)CC2)ccc1OCc1ccc(F)cc1 | 77 to 78 °C |
| CN1C(O)=C(C(=O)NCc2ccccc2)c2ccsc2S1(=O)=O | 176 to 177 °C |
| CCNC(=O)N1C(c2ccccc2C(=O)OCC)=NC(=O)C1(C)C(C)C (stereo not given) | 85 to 87 °C |
| OCC[C@@H]1CCCC[C@@H]1c1ccccc1 (relative stereo) | 48 to 50 °C |
| O=C(O)CCCCC=Cc1cc(-c2ccccc2)c2ccccc2n1 | 152 to 154 °C |
| CCCCCCCNC(=O)Nc1ccccc1C(=O)Nc1c(C(C)C)cccc1C(C)C | 123 to 125 °C |
| CCCSc1sc(C(=O)OCC)c2c1-c1nn(C)cc1CC2 | 90 to 91 °C |
| CN(C)C(=O)c1cc(O)c2nc(C(F)(F)F)n(C)c2c1 | 243 to 244 °C |
| O=C(NCCO)c1cnc(NCCO)cc1Nc1ccc(I)cc1F | > 250 °C |
| Cc1ccc(C(=O)NCc2cc(C(C)(C)O)cc(C(F)(F)F)c2)cc1Nc1nccc(-c2cccnc2)n1 | 253 to 258 °C |
| N#Cc1ccc(C=Cc2cc(=O)c3cc(Br)ccc3o2)cc1 | 275 to 276 °C |
| CCc1nc(-c2cc(Cl)c(O)c(Cl)c2)no1 | 126 °C |
| COc1cc2c(=O)c(Cc3cccnc3)cn3c4ccc(Br)cc4c(c1)c23 | 150 to 151 °C |
| O=C1Cc2ccccc2C12COc1cc3c(cc12)OCC(Cc1ccccc1C(F)F)O3 (stereo not given) | 191 to 193 °C |
| N#Cc1cnn2c1NCCC2c1cccc(C(F)(F)F)c1 (stereo not given) | 192 to 194 °C |
| CC(C)C1COCc2nc3c(N)nc4ccc(O)cc4c3n21 (stereo not given) | 208 to 210 °C |
| CC(C)(C)[Si](C)(C)OC(CCCO)COc1ccc2c(=O)cc(-c3ccccc3)oc2c1 (stereo not given) | 124 to 125 °C |
| COc1ccc(-c2cc(CBr)c(=O)n(Cc3ccc(F)cc3)n2)cc1F | 120 to 125 °C |
| CC=CCn1c(C(=O)c2cc(C)cc(C#N)c2)c(C(C)C)c(=O)[nH]c1=O | 177 to 178 °C |
| CCCOc1ccc(F)cc1C1=NC(=O)C2=NC=NC2=N1 | 238 °C |
| Cc1nccn1-c1cccc(C2=CC(=O)OC(C)(C)O2)c1 | 122 °C |
| CCc1cc(Oc2ccc([C@H](O)[C@@H](Cc3cccc(OC(F)(F)C(F)F)c3)NC(=O)c3cccc4c3C=CCCC4)cc2)ccc1Cl (racemic) | 116 to 117 °C |
| CSc1nc(O)c(NC(=O)c2ccco2)c(O)n1 | 124 to 125 °C |

From a melting point compilation (Tetko et al.; mined from patent text by program, amines drawn as free bases though some values may be those of a salt)
